Test: Plasma pharmacokinetics
Details: during 5 days of dosing

Plasma concentrations appeared to reach steady state by: Day 5
SMILES: N#C[C@@H]1C[C@@H]2C[C@@H]2N1C(=O)[C@@H](N)C12CC3CC(O)(CC(O)(C3)C1)C2 [5-OH-Saxagliptin, 5-hydroxy-saxagliptin]

From PMC3889317 (Diabetes Therapy, 2013)
